Experimental data published in ChEMBL document CHEMBL5727042, “Heteroaromatic compounds as BTK inhibitors” (2018).

Target: T1, Tyrosine-protein kinase Tec (Homo sapiens, UniProt P42680)
T1 sequence (P42680 whole entry): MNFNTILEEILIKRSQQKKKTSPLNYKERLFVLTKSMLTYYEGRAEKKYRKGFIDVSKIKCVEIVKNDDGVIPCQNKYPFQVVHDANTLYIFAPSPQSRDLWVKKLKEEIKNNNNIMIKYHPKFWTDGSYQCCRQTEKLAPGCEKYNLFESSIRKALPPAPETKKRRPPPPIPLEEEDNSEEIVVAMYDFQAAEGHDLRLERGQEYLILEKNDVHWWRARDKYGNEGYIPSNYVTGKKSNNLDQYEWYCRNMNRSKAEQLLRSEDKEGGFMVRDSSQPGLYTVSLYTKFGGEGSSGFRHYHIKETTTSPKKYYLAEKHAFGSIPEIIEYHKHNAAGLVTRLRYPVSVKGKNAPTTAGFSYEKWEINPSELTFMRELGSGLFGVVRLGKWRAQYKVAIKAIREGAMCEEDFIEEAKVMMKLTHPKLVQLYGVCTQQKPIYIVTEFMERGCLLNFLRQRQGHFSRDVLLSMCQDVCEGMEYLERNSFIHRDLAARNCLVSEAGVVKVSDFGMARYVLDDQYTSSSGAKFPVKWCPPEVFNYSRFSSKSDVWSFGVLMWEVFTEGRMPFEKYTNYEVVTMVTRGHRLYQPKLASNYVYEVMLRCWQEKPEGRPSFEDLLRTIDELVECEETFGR
Test: Lanthscreen Eu Kinase Binding Assay : Lanthscreen Eu Kinase Binding assay […] is performed as described above for BTK except that 1 nM human recombinant full length TEC (His-tagged) kinase and 1 nM Alexa Fluor647-labeled Kinase Tracer #178 were used instead.Representative compounds of the present invention are assessed for inhibition of BTK, BMX, and TXK measuring phosphorylation of a …

IC50	SMILES
45 nM	CC#CC(=O)N1CC[C@]2(C1)C[C@H](n1nc(-c3cnn(Cc4cccc(C(F)(F)F)c4Cl)c3)c(C(N)=O)c1N)C2
38 nM	CC#CC(=O)N1CC[C@]2(C1)C[C@H](n1nc(-c3cnn(Cc4ccc(Cl)c(C(F)(F)F)c4)c3)c(C(N)=O)c1N)C2
1200 nM	CC#CC(=O)N1CC[C@]2(C1)C[C@H](n1nc(-c3cnn(Cc4cc(C(F)(F)F)ccc4OC)c3)c(C(N)=O)c1N)C2
130 nM	CC#CC(=O)N1CC[C@]2(C1)C[C@H](n1nc(-c3cnn(Cc4cc(C(F)(F)F)ccc4Cl)c3)c(C(N)=O)c1N)C2
